According to patent publication US8217055B2, “Pyrido-pyrazine derivatives useful as herbicidal compounds” (Syngenta Crop Protection LLC, priority 2006, dated 2012):

What was measured:
Type in all cases: in vivo
test plants = experiment: Example B1 herbicidal action, post-emergence, all test plants together; settings: same protocol as Example B1 (post-emergence, 1000 g/ha, 9 days)
Procedure: (§1) Seeds of a variety of test species were sown in sterilised standard soil in seed trays each having 96 cells. After cultivation for 8 to 9 days cultivation (post-emergence) under controlled conditions in a climatic chamber (cultivation at 23/17° C., day/night; 13 hours light; 50-60% humidity), the plants were treated with an aqueous spray solution of 1000 mg/l of the active ingredient dissolved in 10% DMSO (dimethyl sulfoxide, CAS RN 67-68-5) as a solvent, equivalent to 1000 g/ha. The plants were grown in the climatic chamber after application at (24/19° C., day/night; 13 hours light; 50-60% humidity) and watered twice daily. After 9 days until the test was evaluated (10=total damage to plant, 0=no damage to plant)

Amaranthus retroflexus [1] = experiment: Example B1 herbicidal action, post-emergence, seed trays in climatic chamber (score 10=total damage to plant, 0=no damage to plant); settings: Application post-emergence, 1000 g/ha, evaluated after 9 days
Procedure: as §1

Nasturtium officinale = experiment: as above; settings: Application post-emergence, 1000 g/ha, evaluated after 9 days
Procedure: as §1

Solanum nigrum [2] = experiment: as above; settings: Application post-emergence, 1000 g/ha, evaluated after 9 days
Procedure: as §1

Stellaria media = experiment: as above; settings: Application post-emergence, 1000 g/ha, evaluated after 9 days
Procedure: as §1

Amaranthus retroflexus [3] = experiment: Example B2 herbicidal action, post-emergence, pots in glasshouse, evaluated after 13 days (10=total damage to plant; 0=no damage to plant); settings: rate 1000 g/ha
Procedure: (§2) Seeds of a variety of test species were sown in standard soil in pots. After 8 days cultivation (post-emergence) under controlled conditions in a glasshouse (at 24/16° C., day/night; 14 hours light; 65% humidity), the plants were sprayed with an aqueous spray solution derived from the formulation of the technical active ingredient in acetone/water (50:50) solution containing 0.5% Tween 20 (polyoxyethelyene sorbitan monolaurate, CAS RN 9005-64-5). The test plants were then grown in a glasshouse under controlled conditions in a glasshouse (at 24/16° C., day/night; 14 hours light; 65% humidity) and watered twice daily. After 13 days, the test was evaluated (10=total damage to plant; 0=no damage to plant).

Echinochloa crus-galli = experiment: as above; settings: rate 1000 g/ha
Procedure: as §2

Ipomea hederaceae = experiment: as above; settings: rate 1000 g/ha
Procedure: as §2

Setaria faberi = experiment: as above; settings: rate 1000 g/ha
Procedure: as §2

Solanum nigrum [4] = experiment: as above; settings: rate 1000 g/ha
Procedure: as §2

| SMILES | damage to the test plants (test plants) | AMARE (damage to plant) (Amaranthus retroflexus [1]) | NAAOF (damage to plant) (Nasturtium officinale) | SOLNI (damage to plant) (Solanum nigrum [2]) | STEME (damage to plant) (Stellaria media) | AMARE damage score (10=total damage to plant; 0=no damage to plant) (Amaranthus retroflexus [3]) | ECHCG damage score (10=total damage to plant; 0=no damage to plant) (Echinochloa crus-galli) | IPOHE damage score (10=total damage to plant; 0=no damage to plant) (Ipomea hederaceae) | SETFA damage score (10=total damage to plant; 0=no damage to plant) (Setaria faberi) | SOLNI damage score (10=total damage to plant; 0=no damage to plant) (Solanum nigrum [4]) |
| --- | --- | --- | --- | --- | --- | --- | --- | --- | --- | --- |
| CC(C)(C)C(=O)Oc1c(-c2ccccc2OC(F)(F)F)c(=O)n(CCCCCl)c2nccnc12 [C1] | no damage or very little damage | – | – | – | – | – | – | – | – | – |
| CC(C)(C)C(=O)Oc1c(-c2ccccc2OC(F)(F)F)c(=O)n(CCC(F)(F)F)c2nccnc12 [C2] | – | 0 | 0 | 4 | 0 | – | – | – | – | – |
| CC(C)(C)C(=O)Oc1c(-c2ccccc2OC(F)(F)F)c(=O)n(CCC(F)(F)C(F)(F)F)c2nccnc12 [C3] | no damage or very little damage | – | – | – | – | – | – | – | – | – |
| CC(C)(C)C(=O)Oc1c(-c2c(F)ccc(F)c2Cl)c(=O)n(CCCCCl)c2nccnc12 [C4] | – | 0 | 0 | 4 | 1 | – | – | – | – | – |
| CC(C)(C)C(=O)Oc1c(-c2c(F)ccc(F)c2Cl)c(=O)n(CCCCl)c2nccnc12 [C5] | no damage or very little damage | – | – | – | – | – | – | – | – | – |
| CC(C)(C)C(=O)Oc1c(-c2c(F)ccc(F)c2Cl)c(=O)n(CCC(F)(F)F)c2nccnc12 [C6] | – | 0 | 0 | 1 | 3 | – | – | – | – | – |
| CC(C)(C)C(=O)Oc1c(-c2c(F)ccc(F)c2Cl)c(=O)n(CCC(F)(F)C(F)(F)F)c2nccnc12 [C7] | – | 0 | 0 | 3 | 0 | – | – | – | – | – |
| CC(C)C(=O)Oc1c(-c2c(F)ccc(F)c2Cl)c(=O)n(CC(F)(F)F)c2nccnc12 [C10] | – | – | – | – | – | 10 | 3 | 10 | 6 | 10 |
| CC(C)(C)C(=O)Oc1c(-c2c(F)ccc(F)c2Cl)c(=O)n(CCC=C(F)F)c2nccnc12 [C11] | – | – | – | – | – | 5 | 0 | 0 | 0 | 2 |
| CC(C)(C)C(=O)Oc1c(-c2c(F)ccc(F)c2Cl)c(=O)n(CCC(F)=C(F)F)c2nccnc12 [C12] | – | – | – | – | – | 6 | 0 | 1 | 0 | 3 |
| CC(C)(C)C(=O)Oc1c(-c2c(F)ccc(F)c2Cl)c(=O)n(CC=C(Cl)Cl)c2nccnc12 [C13] | – | – | – | – | – | 0 | 0 | 1 | 0 | 3 |
| CC(C)C(=O)Oc1c(-c2c(F)ccc(F)c2Cl)c(=O)n(CC=C(Cl)Cl)c2nccnc12 [C14] | – | – | – | – | – | 8 | 0 | 1 | 0 | 8 |
| O=C1c2nccnc2N(CC(F)(F)F)C(=O)C1c1c(F)ccc(F)c1Cl (centres unmarked) [D1] | – | – | – | – | – | 10 | 5 | 10 | 6 | 10 |
| O=C1c2nccnc2N(CCF)C(=O)C1c1c(F)ccc(F)c1Cl (centres unmarked) [D2] | – | – | – | – | – | 6 | 1 | 5 | 2 | 7 |
| O=C1c2nccnc2N(CC=C(Cl)Cl)C(=O)C1c1c(F)ccc(F)c1Cl (centres unmarked) [D3] | – | – | – | – | – | 9 | 0 | 7 | 3 | 7 |
